The test system of the assay is HCT 116 cells. Description: Viability assay HCT 116 cells (CellTiter-Glo). It is filed as cell-based. Particulars: Homo sapiens, HCT-116, 120 h, HCT 116 human colon carcinoma cells, 5 days incubation, CellTiter-Glo luminescence. The protocol:
Viability Assay—HCT 116 Cells
A viability assay was performed using the CellTiter-Glo® Luminescent Cell Viability Assay (see Promega Corporation's Technical Bulletin No. 288, pp. 1-11 [revised 2/04] which is hereby incorporated by reference in its entirety). This assay is a homogeneous method of determining the number of viable cells in culture based on quantitation of the ATP present, an indicator of metabolically active cells. The assay is designed for use with multiwell formats, making it ideal for automated high-throughput screening (HTS), cell proliferation and cytotoxicity assays. The homogeneous assay procedure involves adding a single reagent (containing luciferase, luciferan substrate, and buffer) directly to cells cultured in serum-supplemented medium. Cell washing, removal of medium and multiple pipetting steps are not required. The system detects as few as 15 cells/well in a 384-well format in 10 minutes after adding reagent and mixing.
The homogeneous “add-mix-measure” format results in cell lysis and generation of a luminescent signal proportional to the amount of ATP present. The amount of ATP is directly proportional to the number of cells present in culture. The above-referenced assay generates a “glow-type” luminescent signal, produced by the luciferase reaction, which has a half-life generally greater than five hours, depending on cell type and medium used. The extended half-life eliminates the need to use reagent injectors and provides flexibility for continuous or batch mode processing of multiple plates. The unique homogeneous format avoids errors that may be introduced by other ATP measurement methods that require multiple steps.
HCT 116 cells (human colon carcinoma, ATCC-No. CCl-247) were cultivated in RPMI 1640 medium with GlutaMAX™ I (cell culture media that contains L-Alanyl-L-Glutamine [a stabilized a form/source of L-Glutamine] from Invitrogen, Cat-No. 61870-010), 2.5% Fetal Calf Serum (FCS, Sigma Cat-No. F4135 (FBS)); 100 Units/ml penicillin/100 μg/ml streptomycin (=Pen/Strep from Invitrogen Cat. No. 15140). For the assay the cells were seeded in 384 well plates, 1000 cells per well, in the same medium. The next day the test compounds were added in various concentrations ranging from 30 μM to 0.0015 μM (10 concentrations, 1:3 diluted). After 5 days the viability assay was done according to the instructions of the manufacturer. In brief: the cell-plate was equilibrated to room temperature for approximately 30 minutes and than the reagent (containing luciferase, luciferan substrate, and buffer) was added. The contents were carefully mixed for 15 minutes to induce cell lysis. After 45 minutes the luminescent signal was measured in Victor 2, (scanning multiwell spectrophotometer, Wallac).
Medium: RPMI 1640 with cell culture media containing L-Alanyl-L-Glutamine [GlutaMAX™ I (Invitrogen, Cat-Nr. 61870)], 5% FCS (Sigma Cat.-No. F4135), Pen/Strep (Invitrogen, Cat No. 15140). • HCT116 (ATCC-No. CCl-247): 1000 cells in 60 μl per well of 384 well plate (Greiner 781098, μClear-plate white) • After seeding incubate plates 24 h at 37° C., 5% CO2 2nd. Day: Induction (Treatment with Compounds, 10 Concentrations):
In order to achieve a final concentration of 30 μM as highest concentration […] of 10 mM compound stock solution were added directly to 163 μl media. Then step e) of the dilution procedure described below, was followed.
The term IC50 denotes the concentration needed to halve the response being measured. A lower IC50 goes with greater potency in that assay. Regarding `CC1(C)C(=O)N(CCNC(=O)N2CCCC2)c2cc3[nH]c(-c4n[nH]c5ccccc45)nc3cc21` [Example 58, Pyrrolidine-1-carboxylic acid {2-[2-(1H-indazol-3-yl)-7,7-dimethyl-6-oxo-6,7-dihydro-3H-imidazo[4,5-f]indol-5-yl]-ethyl}-amide], the IC50 was 0.1 to 1 µM.
In turn, `CN1CCN(C(=O)NCCN2C(=O)C(C)(C)c3cc4nc(-c5n[nH]c6ccccc56)[nH]c4cc32)CC1` [Example 59, 4-Methyl-piperazine-1-carboxylic acid {2-[2-(1H-indazol-3-yl)-7,7-dimethyl-6-oxo-6,7-dihydro-3H-imidazo[4,5-f]indol-5-yl]-ethyl}-amide] had an IC50 of 1 to 10 µM.
With `CC1(C)C(=O)N(CCNS(C)(=O)=O)c2cc3[nH]c(-c4n[nH]c5ccccc45)nc3cc21` [Example 61, N-{2-[2-(1H-Indazol-3-yl)-7,7-dimethyl-6-oxo-6,7-dihydro-3H-imidazo[4,5-f]indol-5-yl]-ethyl}-methanesulfonamide], the concentration for half-maximal inhibition (IC50) fell in the range of 0.1 to 1 µM.
As to `C[S+]([O-])CCN1C(=O)C(C)(C)c2cc3nc(-c4n[nH]c5ccccc45)[nH]c3cc21` (stereo not shown) [Example 64, 2-(1H-Indazol-3-yl)-5-(2-methanesulfinyl-ethyl)-7,7-dimethyl-5,7-dihydro-3H-imidazo[4,5-f]indol-6-one], the IC50 is 1 to 10 µM.
`CC1(C)C(=O)N(CCS(C)(=O)=O)c2cc3[nH]c(-c4n[nH]c5ccccc45)nc3cc21` [Example 65, 2-(1H-Indazol-3-yl)-5-(2-methanesulfonyl-ethyl)-7,7-dimethyl-5,7-dihydro-3H-imidazo[4,5-f]indol-6-one] had a half-inhibitory concentration (IC50) of 0.1 to 1 µM.
In turn, `CCN1C(=O)C(C)(C)c2cc3nc(-c4n[nH]c5ccc(F)cc45)[nH]c3cc21` [Example 66, 5-Ethyl-2-(5-fluoro-1H-indazol-3-yl)-7,7-dimethyl-5,7-dihydro-3H-imidazo[4,5-f]indol-6-one] had an IC50 of 0.1 to 1 µM.
For `CCN1C(=O)C(C)(C)c2cc3nc(-c4n[nH]c5ccc(C(=O)O)cc45)[nH]c3cc21` [Example 69, 3-(5-Ethyl-7,7-dimethyl-6-oxo-3,5,6,7-tetrahydro-imidazo[4,5-f]indol-2-yl)-1H-indazole-5-carboxylic acid], the IC50 lay within 0.1 to 1 µM.
Turning to `CCN1C(=O)C(C)(C)c2cc3nc(-c4n[nH]c5cc(Br)ccc45)[nH]c3cc21` [Example 70, 2-(6-Bromo-1H-indazol-3-yl)-5-ethyl-7,7-dimethyl-5,7-dihydro-3H-imidazo[4,5-f]indol-6-one], the IC50 lay within 0.1 to 1 µM.
Under `CCN1C(=O)C(C)(C)c2cc3nc(-c4n[nH]c5ccc(C#N)cc45)[nH]c3cc21` [Example 72, 3-(5-Ethyl-7,7-dimethyl-6-oxo-3,5,6,7-tetrahydro-imidazo[4,5-f]indol-2-yl)-1H-indazole-5-carbonitrile] stands 0.1 to 1 µM.
In turn, `CC1(C)C(=O)Nc2cc3[nH]c(-c4n[nH]c5ccc(C(=O)NCc6ccccc6)cc45)nc3cc21` [Example 77, 3-(7,7-Dimethyl-6-oxo-3,5,6,7-tetrahydro-imidazo[4,5-f]indol-2-yl)-1H-indazole-5-carboxylic acid benzylamide] showed an IC50 of 0.1 to 1 µM.
Then `CCN1C(=O)C(C)(C)c2cc3nc(-c4n[nH]c5ccc(C(=O)NCc6ccccc6)cc45)[nH]c3cc21` [Example 79, 3-(5-Ethyl-7,7-dimethyl-6-oxo-3,5,6,7-tetrahydro-imidazo[4,5-f]indol-2-yl)-1H-indazole-5-carboxylic acid benzylamide], with 0.1 to 1 µM; and `CCN1C(=O)C(C)(C)c2cc3nc(-c4n[nH]c5ccc(C(=O)NCc6cccnc6)cc45)[nH]c3cc21` [Example 81, 3-(5-Ethyl-7,7-dimethyl-6-oxo-3,5,6,7-tetrahydro-imidazo[4,5-f]indol-2-yl)-1H-indazole-5-carboxylic acid (pyridin-3-ylmethyl)-amide; compound with acetic acid], with 0.1 to 1 µM.
Regarding `CCN1C(=O)C(C)(C)c2cc3nc(-c4n[nH]c5ccc(C(=O)NCc6ccncc6)cc45)[nH]c3cc21` [Example 82, 3-(5-Ethyl-7,7-dimethyl-6-oxo-3,5,6,7-tetrahydro-imidazo[4,5-f]indol-2-yl)-1H-indazole-5-carboxylic acid (pyridin-4-ylmethyl)-amide; compound with acetic acid], the IC50 was 1 to 10 µM.
The compound `CCN1C(=O)C(C)(C)c2cc3nc(-c4n[nH]c5ccc(C(=O)NCc6ccc(F)cc6F)cc45)[nH]c3cc21` [Example 85, 3-(5-Ethyl-7,7-dimethyl-6-oxo-3,5,6,7-tetrahydro-imidazo[4,5-f]indol-2-yl)-1H-indazole-5-carboxylic acid 2,4-difluoro-benzylamide] gave an IC50 of 0.1 to 1 µM.
In turn, `CCN1C(=O)C(C)(C)c2cc3nc(-c4n[nH]c5ccc(C(=O)NCc6cccc(OC(F)(F)F)c6)cc45)[nH]c3cc21` [Example 86, 3-(5-Ethyl-7,7-dimethyl-6-oxo-3,5,6,7-tetrahydro-imidazo[4,5-f]indol-2-yl)-1H-indazole-5-carboxylic acid 3-trifluoromethoxy-benzylamide] showed an IC50 of 0.1 to 1 µM.
Then `CCN1C(=O)C(C)(C)c2cc3nc(-c4n[nH]c5ccc(C(=O)NCc6cccc(Cl)c6)cc45)[nH]c3cc21` [Example 88, 3-(5-Ethyl-7,7-dimethyl-6-oxo-3,5,6,7-tetrahydro-imidazo[4,5-f]indol-2-yl)-1H-indazole-5-carboxylic acid 3-chloro-benzylamide], with 0.1 to 1 µM; and `CCN1C(=O)C(C)(C)c2cc3nc(-c4n[nH]c5ccc(C(=O)N6CCSCC6)cc45)[nH]c3cc21` [Example 95, 5-Ethyl-7,7-dimethyl-2-[5-(thiomorpholine-4-carbonyl)-1H-indazol-3-yl]-5,7-dihydro-3H-imidazo[4,5-f]indol-6-one], with 0.1 to 1 µM.
`CCN1C(=O)C(C)(C)c2cc3nc(-c4n[nH]c5ccc(C(=O)N6CCSC6)cc45)[nH]c3cc21` [Example 96, 5-Ethyl-7,7-dimethyl-2-[5-(thiazolidine-3-carbonyl)-1H-indazol-3-yl]-5,7-dihydro-3H-imidazo[4,5-f]indol-6-one] registered an IC50 of 0.1 to 1 µM.
On to `CCN1C(=O)C(C)(C)c2cc3nc(-c4n[nH]c5ccc(C(N)=O)cc45)[nH]c3cc21` [Example 100, 3-(5-Ethyl-7,7-dimethyl-6-oxo-3,5,6,7-tetrahydro-imidazo[4,5-f]indol-2-yl)-1H-indazole-5-carboxylic acid amide], for which the IC50 was 1 to 10 µM.
The compound `CCN1C(=O)C(C)(C)c2cc3nc(-c4n[nH]c5ccc(C(=O)OC)cc45)[nH]c3cc21` [Example 101, 3-(5-Ethyl-7,7-dimethyl-6-oxo-3,5,6,7-tetrahydro-imidazo[4,5-f]indol-2-yl)-1H-indazole-5-carboxylic acid methyl ester] registered an IC50 of 0.1 to 1 µM.
`CCN1C(=O)C(C)(C)c2cc3nc(-c4n[nH]c5ccc(C(C)=O)cc45)[nH]c3cc21` [Example 103, 2-(5-Acetyl-1H-indazol-3-yl)-5-ethyl-7,7-dimethyl-5,7-dihydro-3H-imidazo[4,5-f]indol-6-one] registered an IC50 of 0.1 to 1 µM.
With `CC1(C)C(=O)Nc2cc3[nH]c(-c4n[nH]c5cc(C(=O)NCc6ccccc6)ccc45)nc3cc21` [Example 104, 3-(7,7-Dimethyl-6-oxo-3,5,6,7-tetrahydro-imidazo[4,5-f]indol-2-yl)-1H-indazole-6-carboxylic acid benzylamide], the IC50 was 1 to 10 µM.

Source of the values: patent US20060142247A1, “Tricyclic heterocycles” (priority 2004, published 2006).
